From patent US6242564A (priority 1992, dated 2001)

Assays:
HTLV-III virus (HIV) = experiment: Blockade of viral infection of human T cells (reverse transcriptase activity); type: cell-based; conditions: for Rank order of potencies in inhibiting receptor binding and viral infectivity: FIGS. 2c, 3
Method: The treated cells were then panned on a plastic Petri dish that was coated with goat [F(ab')2 ] anti-mouse immunoglobulin (Sero Lab, Eastbury, Mass.) for 20 min at 4° C. The nonadherent cells were then removed, washed, and analyzed for reactivity by flow cytometry. […] Cells were then cultured with phytohemagglutinin (1 μg/ml) for 72 hrs and exposed to HIV as described below. Infected cells were phenotypically characterized when cytotoxicity assays were performed.
The HTLV-III virus used for infection was isolated from an interleukin 2 (IL-2)-dependent cultured T-cell line established from fresh AIDS patient material and passaged into HuT 78, permissive IL-2-independent cell line.
Each determination was performed in duplicate.

[1] = system: T4 antigen (gp 120 receptor) on rat hippocampal membranes; experiment: Displacement of specific 125I-gp 120 binding to fresh rat hippocampal (brain) membranes
Method: ETLV-IIIb isolate of HIV was propaged in H9 cells, and the gp 120 was isolated by immunoaffinity chromatography and preparative NaDodSO4 /PAGE. Purified gp 120 was labeled with 125 by the chloramine-T method.
Fresh human, monkey, and rat hippocampus were quickly homogenized (POLYTRON, Brinkmann Instruments) in 100 vol. of ice-cold 50 mM Hepes (pH 7.4). The membranes collected by centrifugation (15,000×g) were washed in the original buffer volume and were used fresh or stored at -70° C. Before use, brain membranes and highly purified T cells were preincubated for 15-30 min in phosphate-buffered saline (PBS). Preincubated membranes derived from 2 mg (initial we weight) of brain (α100 μg of protein) were incubated with 28,000 cpm of 125I -gp 120 for 1 hour at 37° C. in 200 μl (final volume) of 50 mM Hepes containing 0.1% bovine serum albumin and the peptidase inhibitors bacitracin (0.005%), aprotinin (0.005%), leupeptin (0.001%), and chymostatin (0.001%). Incubations were rapidly vacuum-filtered and counted to determine the receptor-bound material.
Each determination was performed in triplicate; the results of one experiment, which was performed three times with similar results, is shown. Specific binding (FIG. 2b) displaceable by 10 μg/ml of OKT4 and 4A ranged between 27 and 85% of total binding, which was 2,201±74 cpm in the experiment shown.

[2] = molecular target: HIV viral receptors, such as T4 (Homo sapiens, UniProt P01730); experiment: General statements of receptor binding / activity, test not specified
HIV = conditions: in vitro; cited from earlier work
gp 120 = conditions: in vitro; cited from earlier work

## C[C@@H](N)C(=O)N[C@@H](CO)C(=O)N[C@H](C(=O)N[C@H](C(=O)N[C@H](C(=O)N[C@@H](CC(N)=O)C(=O)N[C@@H](Cc1ccc(O)cc1)C(=O)N[C@H](C(N)=O)[C@@H](C)O)[C@@H](C)O)[C@@H](C)O)[C@@H](C)O [D-[Ala]1-peptide T-amide]
HTLV-III virus (HIV)
  Rank order of potencies in inhibiting receptor binding and viral infectivity: D-[Ala]1 -peptide T-amide>D-[Ala]1 -peptide T>peptide T>D-[Thr]8 -peptide T-amide

## C[C@H](N)C(=O)N[C@@H](CO)C(=O)N[C@H](C(=O)N[C@H](C(=O)N[C@H](C(=O)N[C@@H](CC(N)=O)C(=O)N[C@@H](Cc1ccc(O)cc1)C(=O)N[C@@H](C(N)=O)[C@H](C)O)[C@@H](C)O)[C@@H](C)O)[C@@H](C)O [D-[Thr]8-peptide T-amide]
[1]
  Loss of receptor binding activity versus peptide T: ≥ 100 fold
HTLV-III virus (HIV)
  Rank order of potencies in inhibiting receptor binding and viral infectivity: D-[Ala]1 -peptide T-amide>D-[Ala]1 -peptide T>peptide T>D-[Thr]8 -peptide T-amide
HTLV-III virus (HIV); human T cells
  Concentration required for significant inhibition of viral infection, relative to the active peptides: 100 fold
HTLV-III virus (HIV); human T cells, FIG. 3
  Blockade of viral infectivity (in words): greatly reduced blockade of viral infection

## CYS-THR-THR-ASN-TYR-THR-CYS (CTTNYTC; printed: CYS-THR-THR-ASN-TYR-THR-CYS) [seven amino acid peptide, core with added cysteines]
[2]
  Activity (test not specified): also active

## VIP: Vasoactive Intestinal Peptide
HIV
  HIV replication in cell culture: inhibit
Gp 120
  Binding of gp 120 to brain tissue: inhibit
